BindingDB's records for doi:10.1021/jm050825p (National Institute of Allergy and Infectious Diseases, 2006)

Columns and labels:
[1] = molecular target: T1, 3-oxoacyl-[acyl-carrier-protein] synthase 2 (Mycobacterium tuberculosis (strain ATCC 25618 / H37Rv), UniProt P9WQD7); experiment: Inhibitory activity against KasB from Mycobacterium tuberculosis H37Rv
T1 sequence (P9WQD7 whole entry): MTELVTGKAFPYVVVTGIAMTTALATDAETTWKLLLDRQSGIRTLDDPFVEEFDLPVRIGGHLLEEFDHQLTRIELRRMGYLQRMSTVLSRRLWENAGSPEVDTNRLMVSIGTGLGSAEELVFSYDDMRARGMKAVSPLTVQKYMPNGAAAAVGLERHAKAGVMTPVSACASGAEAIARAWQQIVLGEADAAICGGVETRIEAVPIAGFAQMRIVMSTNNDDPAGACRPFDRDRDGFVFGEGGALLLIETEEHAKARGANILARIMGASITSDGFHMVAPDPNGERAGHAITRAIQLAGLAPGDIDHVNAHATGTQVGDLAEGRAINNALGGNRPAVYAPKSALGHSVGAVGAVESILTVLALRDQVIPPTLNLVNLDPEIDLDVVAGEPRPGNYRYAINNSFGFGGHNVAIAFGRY

[2] = molecular target: T2, 3-oxoacyl-[acyl-carrier-protein] synthase 3 (Mycobacterium tuberculosis (strain ATCC 25618 / H37Rv), UniProt P9WNG3); experiment: Inhibitory activity against FabH from Mycobacterium tuberculosis H37Rv
T2 sequence (P9WNG3 whole entry): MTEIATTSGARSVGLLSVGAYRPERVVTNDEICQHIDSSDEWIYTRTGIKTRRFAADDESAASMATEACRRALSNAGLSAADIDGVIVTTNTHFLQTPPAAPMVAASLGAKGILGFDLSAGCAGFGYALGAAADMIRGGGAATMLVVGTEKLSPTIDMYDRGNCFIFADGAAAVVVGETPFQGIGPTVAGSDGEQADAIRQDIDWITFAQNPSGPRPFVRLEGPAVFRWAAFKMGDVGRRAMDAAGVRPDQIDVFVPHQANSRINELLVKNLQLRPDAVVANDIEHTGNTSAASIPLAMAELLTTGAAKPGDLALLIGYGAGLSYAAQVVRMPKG

[3] = molecular target: T3, 3-oxoacyl-[acyl-carrier-protein] synthase 1 (Escherichia coli (strain K12), UniProt P0A953); experiment: Inhibitory activity against FabB from Escherichia coli ANSI
T3 sequence (P0A953 whole entry): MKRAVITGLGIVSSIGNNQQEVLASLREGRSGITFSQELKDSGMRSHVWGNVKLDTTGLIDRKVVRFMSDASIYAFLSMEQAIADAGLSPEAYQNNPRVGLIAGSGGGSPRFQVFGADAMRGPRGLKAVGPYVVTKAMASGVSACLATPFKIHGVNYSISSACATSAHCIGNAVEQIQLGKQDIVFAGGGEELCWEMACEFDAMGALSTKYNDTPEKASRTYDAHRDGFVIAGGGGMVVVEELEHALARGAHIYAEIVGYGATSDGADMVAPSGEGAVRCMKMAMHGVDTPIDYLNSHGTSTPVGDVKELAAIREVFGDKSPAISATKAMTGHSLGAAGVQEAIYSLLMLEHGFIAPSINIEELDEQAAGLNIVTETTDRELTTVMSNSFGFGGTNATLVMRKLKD

[4] = molecular target: T4, 3-oxoacyl-[acyl-carrier-protein] synthase 3 (Escherichia coli, UniProt C3TDZ2); experiment: Inhibitory activity against FabH from Escherichia coli ANSI
T4 sequence (C3TDZ2 whole entry): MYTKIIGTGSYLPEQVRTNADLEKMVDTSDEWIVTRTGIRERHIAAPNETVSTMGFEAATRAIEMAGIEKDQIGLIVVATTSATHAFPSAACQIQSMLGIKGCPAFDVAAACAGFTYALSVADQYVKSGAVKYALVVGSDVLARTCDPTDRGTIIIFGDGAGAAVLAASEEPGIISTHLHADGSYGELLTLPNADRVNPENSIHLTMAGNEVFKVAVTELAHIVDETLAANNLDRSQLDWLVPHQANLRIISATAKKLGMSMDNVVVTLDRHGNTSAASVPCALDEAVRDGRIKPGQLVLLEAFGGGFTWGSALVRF

| SMILES | IC50 [1] | IC50 [2] | IC50 [3] | IC50 [4] |
| --- | --- | --- | --- | --- |
| Cc1ccc(CC2(C)SC(=O)C(C)C2=O)cc1 (stereo unspecified) [3,5-dimethyl-4-hydroxy-5-(4-methylbenzyl)-5H-thiophen-2-one] | > 1000 µM | > 1000 µM | > 1000 µM | > 1000 µM |
| CC1C(=O)SC(C)(Cc2ccc(C(C)(C)C)cc2)C1=O (stereo unspecified) [5-(4-tert-butylbenzyl)-3,5-dimethyl-4-hydroxy-5H-thiophen-2-one] | > 1000 µM | > 100 µM | > 1000 µM | > 1000 µM |
| Cc1ccccc1CC1(C)SC(=O)C(C)C1=O (stereo unspecified) [3,5-dimethyl-4-hydroxy-5-(2-methylbenzyl)-5H-thiophen-2-one] | > 1000 µM | > 1000 µM | > 1000 µM | > 1000 µM |
| CCCCCCCC1(C)SC(=O)C(C)C1=O (stereo unspecified) [3,5-dimethyl-5-heptyl-4-hydroxy-5H-thiophen-2-one] | > 1000 µM | > 1000 µM | > 1000 µM | > 1000 µM |
| CCCCC(CC)CC1(C)SC(=O)C(C)C1=O (stereo unspecified) [3,5-dimethyl-5-(2-ethylhexyl)-4-hydroxy-5H-thiophen-2-one] | > 1000 µM | > 1000 µM | > 1000 µM | > 1000 µM |
| CCCCCCCCCC1(C)SC(=O)C(C)C1=O (stereo unspecified) [3,5-dimethyl-4-hydroxy-5-nonyl-5H-thiophen-2-one] | > 1000 µM | > 100 µM | > 1000 µM | > 100 µM |
| CC1C(=O)SC(C)(Cc2ccc3ccccc3c2)C1=O (stereo unspecified) [3,5-dimethyl-4-hydroxy-5-(naphthalen-2-ylmethyl)-5H-thiophen-2-one] | > 1000 µM | > 100 µM | > 1000 µM | > 1000 µM |
| COc1cc(CC2(C)SC(=O)C(C)C2=O)cc(OC)c1 (stereo unspecified) [3,5-dimethyl-5-(3,5-dimethoxybenzyl)-4-hydroxy-5H-thiophen-2-one] | > 1000 µM | > 1000 µM | > 1000 µM | > 1000 µM |
| C=CCCC1(C)SC(=O)C(C)C1=O (stereo unspecified) [5-(but-3-enyl)-3,5-dimethyl-4-hydroxy-5H-thiophen-2-one] | > 1000 µM | > 1000 µM | > 1000 µM | > 1000 µM |
| CC1C(=O)SC(C)(CCCc2ccccc2)C1=O (stereo unspecified) [3,5-dimethyl-4-hydroxy-5-(3-phenylpropyl)-5H-thiophen-2-one] | > 1000 µM | > 1000 µM | > 1000 µM | > 1000 µM |
| Cc1cc(C)c(CC2(C)SC(=O)C(C)C2=O)c(C)c1 (stereo unspecified) [3,5-dimethyl-4-hydroxy-5-(2,4,6-trimethylbenzyl)-5H-thiophen-2-one] | > 1000 µM | > 1000 µM | > 1000 µM | > 1000 µM |
| COc1ccc(CC2(C)SC(=O)C(C)C2=O)cc1 (stereo unspecified) [4-Hydroxy-5-(4-methoxy-benzyl)-3,5-dimethyl-5H-thiophen-2-one] | > 1000 µM | > 1000 µM | > 1000 µM | > 1000 µM |
| CC1C(=O)SC(C)(C(C)c2ccccc2)C1=O (stereo unspecified) [3,5-dimethyl-4-hydroxy-5-(1-phenylethyl)-5H-thiophen-2-one] | > 1000 µM | > 1000 µM | > 1000 µM | > 1000 µM |
| CC1C(=O)SC(C)(Cc2ccc(F)cc2)C1=O (stereo unspecified) [3,5-dimethyl-5-(4-fluorobenzyl)-4-hydroxy-5H-thiophen-2-one] | > 1000 µM | > 100 µM | > 1000 µM | > 1000 µM |
| Cc1ccc(C)c(CC2(C)SC(=O)C(C)C2=O)c1 (stereo unspecified) [3,5-dimethyl-5-(2,5-dimethylbenzyl)-4-hydroxy-5H-thiophen-2-one] | > 1000 µM | > 1000 µM | > 1000 µM | > 1000 µM |
| COc1cccc(CC2(C)SC(=O)C(C)C2=O)c1 (stereo unspecified) [4-Hydroxy-5-(3-methoxy-benzyl)-3,5-dimethyl-5H-thiophen-2-one] | > 1000 µM | > 1000 µM | > 1000 µM | > 1000 µM |
| CC(C)CCC1(C)SC(=O)C(C)C1=O (stereo unspecified) [3,5-dimethyl-4-hydroxy-5-(3-methylbutyl)-5H-thiophen-2-one] | > 1000 µM | > 1000 µM | > 1000 µM | > 1000 µM |
| CC1C(=O)SC(C)(Cc2cccc(C(F)(F)F)c2)C1=O (stereo unspecified) [3,5-dimethyl-4-hydroxy-5-(3-trifluoromethylbenzyl)-5H-thiophen-2-one] | > 1000 µM | > 1000 µM | > 1000 µM | > 1000 µM |
| CC1C(=O)SC(C)(Cc2ccccc2Cl)C1=O (stereo unspecified) [5-(2-chlorobenzyl)-3,5-dimethyl-4-hydroxy-5H-thiophen-2-one] | > 1000 µM | > 1000 µM | > 1000 µM | > 1000 µM |
| CC1C(=O)SC(C)(CCc2ccccc2)C1=O (stereo unspecified) [3,5-dimethyl-4-hydroxy-5-phenethyl-5H-thiophen-2-one] | > 1000 µM | > 1000 µM | > 1000 µM | > 1000 µM |
| COc1ccccc1CC1(C)SC(=O)C(C)C1=O (stereo unspecified) [3,5-dimethyl-4-hydroxy-5-(2-methoxybenzyl)-5H-thiophen-2-one] | > 1000 µM | > 100 µM | > 1000 µM | > 1000 µM |
| CC1C(=O)SC(C)(Cc2cccc(Cl)c2)C1=O (stereo unspecified) [5-(3-chlorobenzyl)-3,5-dimethyl-4-hydroxy-5H-thiophen-2-one] | > 1000 µM | > 1000 µM | > 1000 µM | > 1000 µM |
| CC1C(=O)SC(C)(Cc2c(Cl)cccc2Cl)C1=O (stereo unspecified) [5-(2,6-dichlorobenzyl)-3,5-dimethyl-4-hydroxy-5H-thiophen-2-one] | > 1000 µM | > 1000 µM | > 1000 µM | > 1000 µM |
| CC1C(=O)SC(C)(CC2CCC2)C1=O (stereo unspecified) [5-cyclobutylmethyl-3,5-dimethyl-4-hydroxy-5H-thiophen-2-one] | > 1000 µM | > 1000 µM | > 1000 µM | > 1000 µM |
